According to ChEMBL document CHEMBL5230153, “Bitopic Sigma 1 Receptor Modulators to Shed Light on Molecular Mechanisms Underpinning Ligand Binding and Receptor Oligomerization” (J Med Chem, 2021):
Active and inactive are the calls of the source. The calls are words filed in the database; no cut-off is given here.

What was measured:
[1] = biological target: Sigma non-opioid intracellular receptor 1 (Cavia porcellus, UniProt Q60492); assay: Displacement of [3H](+)-pentazocine from sigma 1 receptor in guinea pig brain membranes measured after 120 mins by scintillation counting method; format: cell membranes, Membrane
PC-12 [2] = assay: Cytotoxicity against rat PC-12 cells assessed as cell death at 0.25 uM after 72 hrs incubation by LDH-based cytotoxic assay; format: toxicity; conditions: pc-12, 72 h
PC-12 [3] = assay: Neuroprotective activity in rat PC-12 cells assessed as increase in NGF-mediated neurite outgrowth by measuring differentiated cells at 5 to 250 nM incubated for 72 hrs by bright-field microscopic analysis; format: functional, cell-based; conditions: dose 5-250 nM
PC-12 [4] = assay: Neuroprotective activity in rat PC-12 cells assessed as increase in NGF-mediated neurite outgrowth by measuring differentiated cells at 5 to 250 nM in presence of 1 uM NE-100 incubated for 72 hrs by bright-field microscopic analysis; format: functional, cell-based; conditions: dose 5-250 nM
[5] = biological target: Sigma non-opioid intracellular receptor 1 (Cavia porcellus) (UniProt Q60492); assay: Displacement of [3H](+)-pentazocine from sigma 1 receptor in guinea pig brain membranes measured after 120 mins by scintillation counting method relative to control; format: cell membranes; conditions: Membrane
Chain of Sigma non-opioid intracellular receptor 1 (Cavia porcellus) (Q60492 whole entry): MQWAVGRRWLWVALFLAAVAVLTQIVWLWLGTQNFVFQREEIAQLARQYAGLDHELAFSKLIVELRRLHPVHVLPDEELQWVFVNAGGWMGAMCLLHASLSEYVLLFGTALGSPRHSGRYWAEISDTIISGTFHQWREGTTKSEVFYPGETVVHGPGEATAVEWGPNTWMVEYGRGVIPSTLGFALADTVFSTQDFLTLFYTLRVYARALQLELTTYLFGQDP

Chain of Sigma non-opioid intracellular receptor 1 (Q60492 whole entry): as above

Row | Ki [1] [nM] | inhibition [5] [%] | SMILES | Activity (PC-12 [2]) | Activity (PC-12 [3]) | Activity (PC-12 [4])
1 | 1600 | – | C[C@H](CCN1CCC(NC(=O)COCCOCCOCCOCCNC(=O)c2ccccc2)CC1)c1ccc(-c2ccccc2)cc1 | – | – | –
2 | 2.6 | – | C[C@H](CCN1CCC(NC(=O)COCCOCC(=O)NC2CCN(CC[C@@H](C)c3ccc(-c4ccccc4)cc3)CC2)CC1)c1ccc(-c2ccccc2)cc1 | Non-Toxic | Active | inactive
3 | 799 | – | C[C@H](CCN1CCC(NC(=O)CCOCCOCCOCCOCCOCCOCCOCCOCCOCCC(=O)NC2CCN(CC[C@@H](C)c3ccc(-c4ccccc4)cc3)CC2)CC1)c1ccc(-c2ccccc2)cc1 | – | – | –
4 | 622 | – | C[C@H](CCN1CCC(NC(=O)CCCC(=O)NC2CCN(CC[C@@H](C)c3ccc(-c4ccccc4)cc3)CC2)CC1)c1ccc(-c2ccccc2)cc1 | – | – | –
5 | 200 | – | C[C@H](CCN1CCC(NC(=O)CC(=O)NC2CCN(CC[C@@H](C)c3ccc(-c4ccccc4)cc3)CC2)CC1)c1ccc(-c2ccccc2)cc1 | Non-Toxic | Active | inactive

More lines, now with the values behind:

Row | SMILES | Ki [1] [nM] | inhibition [5] [%] | Activity (PC-12 [2]) | Activity (PC-12 [3]) | Activity (PC-12 [4])
6 | C[C@H](CCN1CCC(NC(=O)COCC(=O)NC2CCN(CC[C@@H](C)c3ccc(-c4ccccc4)cc3)CC2)CC1)c1ccc(-c2ccccc2)cc1 | – | 0 | – | – | –
7 | CC(=O)NC1CCN(CC[C@@H](C)c2ccc(-c3ccccc3)cc2)CC1 | 11 | – | Non-Toxic | Active | inactive
8 | C[C@H](CCN1CCC(NC(=O)CCCCCC(=O)NC2CCN(CC[C@@H](C)c3ccc(-c4ccccc4)cc3)CC2)CC1)c1ccc(-c2ccccc2)cc1 | 1300 | – | – | – | –
9 | C[C@H](CCN1CCCCC1)c1ccc(-c2ccccc2)cc1 | – | – | Non-Toxic | Active | inactive
10 | C[C@H](CCN1CCC(NC(=O)c2ccccc2C(=O)NC2CCN(CC[C@@H](C)c3ccc(-c4ccccc4)cc3)CC2)CC1)c1ccc(-c2ccccc2)cc1 | 134 | – | – | – | –
